Reference: ChEMBL document CHEMBL4321821, “Opioids as Substrates and Inhibitors of the Genetically Highly Variable Organic Cation Transporter OCT1” (J Med Chem, 2019)
The source made the active and inactive calls. No cut-off for these calls is given here.

Legend:
[1] = Ratio of unbound maximal portal vein concentration in human at 50 mg, po to inhibition of human OCT1 expressed in HEK293 cells assessed as reduction in ASP+ substrate uptake by microplate reader based analysis; format: ADME, organism-based; details: in vivo
[2] = in vitro; details: PAMPA
Description: Passive membrane permeability by LC-MS/MS analysis based PAMPA

[3] = Ratio of unbound maximal portal vein concentration in human at 50 mg, iv to inhibition of human OCT1 expressed in HEK293 cells assessed as reduction in ASP+ substrate uptake by microplate reader based analysis; format: ADME, organism-based; details: in vivo
[4] = target: T1, OCT1 (SLC22A1) (Homo sapiens, UniProt O15245); assay: Substrate activity at human OCT1 expressed in HEK293 cells assessed as increase in compound uptake at 0.05 uM incubated for 2 mins by LC-MS/MS analysis relative to control empty vector transfected cells; format: cell-based; details: HEK293 cells that express human OCT1, read-out: FC
T1 sequence (O15245 whole entry): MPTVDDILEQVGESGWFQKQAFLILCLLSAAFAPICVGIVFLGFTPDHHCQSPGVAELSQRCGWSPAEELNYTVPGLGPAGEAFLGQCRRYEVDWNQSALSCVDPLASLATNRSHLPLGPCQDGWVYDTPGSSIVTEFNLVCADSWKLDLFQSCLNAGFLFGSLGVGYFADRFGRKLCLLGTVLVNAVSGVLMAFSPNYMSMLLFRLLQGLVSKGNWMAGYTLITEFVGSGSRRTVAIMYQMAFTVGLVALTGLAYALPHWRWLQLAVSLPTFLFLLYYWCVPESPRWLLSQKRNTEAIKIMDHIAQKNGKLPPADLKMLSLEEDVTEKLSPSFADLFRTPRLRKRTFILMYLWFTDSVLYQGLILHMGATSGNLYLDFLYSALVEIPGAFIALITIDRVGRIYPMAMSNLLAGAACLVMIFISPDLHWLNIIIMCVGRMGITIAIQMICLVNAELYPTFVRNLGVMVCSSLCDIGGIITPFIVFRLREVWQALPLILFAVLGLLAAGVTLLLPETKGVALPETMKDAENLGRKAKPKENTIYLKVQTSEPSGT

[5] = Ratio of unbound Cmax in human at 50 mg, po to inhibition of human OCT1 expressed in HEK293 cells assessed as reduction in ASP+ substrate uptake by microplate reader based analysis; format: ADME, organism-based; details: in vivo
[6] = Cmax in human at 50 mg, po; format: ADME; design: dose 50 mg, route oral; details: in vivo
[7] = Cmax in human at 50 mg, iv; format: ADME; design: dose 50 mg, route intravenous; details: in vivo
[8] = target: T2, Solute carrier family 22 member 1 (Homo sapiens, UniProt O15245); assay: Inhibition of human OCT1 expressed in HEK293 cells assessed as reduction in ASP+ substrate uptake by microplate reader based analysis; format: cell-based
T2 sequence (O15245 whole entry): T1 sequence (O15245 whole entry)

[9] = Unbound Cmax in human at 50 mg, po; format: ADME; details: in vivo
[10] = target: T1, OCT1 (SLC22A1); assay: Substrate activity at human OCT1 expressed in HEK293 cells assessed as increase in compound uptake at 0.5 uM incubated for 2 mins by LC-MS/MS analysis relative to control empty vector transfected cells; format: cell-based; details: HEK293 cells that express human OCT1, read-out: FC
[11] = Unbound maximal portal vein concentration of in human at 50 mg, po; format: ADME, tissue-based; details: in vivo
[12] = Unbound Cmax in human at 50 mg, iv; format: ADME; details: in vivo
[13] = Unbound maximal portal vein concentration of in human at 50 mg, iv; format: ADME, tissue-based; details: in vivo
[14] = Ratio of unbound Cmax in human at 50 mg, iv to inhibition of human OCT1 expressed in HEK293 cells assessed as reduction in ASP+ substrate uptake by microplate reader based analysis; format: ADME, organism-based; details: in vivo
[15] = target: T1, OCT1 (SLC22A1); assay: Substrate activity at human OCT1 expressed in HEK293 cells assessed as increase in compound uptake at 0.1 uM incubated for 2 mins by LC-MS/MS analysis relative to control empty vector transfected cells; format: cell-based; details: HEK293 cells that express human OCT1, read-out: FC
[16] = test system: HEK293; assay: Substrate activity at human OCT1*7 allele mutant expressed in HEK293 cells assessed as increase in compound uptake at 0.1 uM incubated for 2 mins by LC-MS/MS analysis relative to control empty vector transfected cells; format: cell-based
[17] = target: T2, Solute carrier family 22 member 1; assay: Substrate activity at OCT1 in primary human hepatocytes assessed as increase in compound uptake at 0.1 uM incubated for 2 mins by LC-MS/MS analysis relative to control; format: cell-based
[18] = test system: HEK293; assay: Substrate activity at human OCT1*8 allele mutant expressed in HEK293 cells assessed as increase in compound uptake at 0.1 uM incubated for 2 mins by LC-MS/MS analysis relative to control empty vector transfected cells; format: cell-based
[19] = test system: HEK293; assay: Substrate activity at human OCT1*6 allele mutant expressed in HEK293 cells assessed as increase in compound uptake at 0.1 uM incubated for 2 mins by LC-MS/MS analysis relative to control empty vector transfected cells; format: cell-based
[20] = test system: HEK293; assay: Substrate activity at human OCT1*3 allele mutant expressed in HEK293 cells assessed as increase in compound uptake at 0.1 uM incubated for 2 mins by LC-MS/MS analysis relative to control empty vector transfected cells; format: cell-based
[21] = test system: HEK293; assay: Substrate activity at human OCT1*4 allele mutant expressed in HEK293 cells assessed as increase in compound uptake at 0.1 uM incubated for 2 mins by LC-MS/MS analysis relative to control empty vector transfected cells; format: cell-based
[22] = Unbound Cmax in human at 4 mg, po; format: ADME; details: in vivo
[23] = Unbound maximal portal vein concentration of in human at 4 mg, po; format: ADME, tissue-based; details: in vivo
[24] = Cmax in human at 4 mg, po; format: ADME; design: dose 4 mg, route oral; details: in vivo
[25] = test system: HEK293; assay: Substrate activity at human OCT1*2 allele mutant expressed in HEK293 cells assessed as increase in compound uptake at 0.1 uM incubated for 2 mins by LC-MS/MS analysis relative to control empty vector transfected cells; format: cell-based
[26] = Cmax in human at 450 mg, po; format: ADME; design: dose 450 mg, route oral; details: in vivo
[27] = target: T1, OCT1 (SLC22A1); assay: Substrate activity at human OCT1 expressed in HEK293 cells assessed as increase in compound uptake by measuring Km incubated for 2 mins by LC-MS/MS analysis based Michaelis-Menten plot analysis relative to control empty vector transfected cells; format: cell-based; details: HEK293 cells that express human OCT1
[28] = Unbound Cmax in human at 450 mg, po; format: ADME; details: in vivo
[29] = target: T2, Solute carrier family 22 member 1; assay: Substrate activity at human OCT1 expressed in HEK293 cells assessed as increase in compound uptake by measuring Vmax incubated for 2 mins by LC-MS/MS analysis based Michaelis-Menten plot analysis relative to control empty vector transfected cells; format: cell-based; details: hek293, 2 min
[30] = Unbound maximal portal vein concentration of in human at 450 mg, po; format: ADME, tissue-based; details: in vivo
[31] = test system: HEK293; assay: Substrate activity at human OCT1*5 allele mutant expressed in HEK293 cells assessed as increase in compound uptake at 0.1 uM incubated for 2 mins by LC-MS/MS analysis relative to control empty vector transfected cells; format: cell-based
[32] = Intrinsic clearance in human liver microsomes; format: ADME, Microsome; details: read-out: CLH
[33] = Cmax in human at 10 mg, po dosed as immediate release formulation; details: in vivo
[34] = Cmax in human at 10 mg, im; details: in vivo
[35] = Cmax in human at 50 mg, po dosed as slow release formulation; details: in vivo
[36] = Cmax in human at 10 mg, iv; details: in vivo
[37] = Cmax in human at 5 mg, po dosed as immediate release formulation; format: ADME, organism-based; design: dose 5 mg, route oral; details: in vivo
[38] = Ratio of unbound maximal portal vein concentration in human at 5 mg, po dosed as immediate release formulation to inhibition of human OCT1 expressed in HEK293 cells assessed as reduction in ASP+ substrate uptake by microplate reader based analysis; format: ADME, organism-based; details: in vivo
[39] = Cmax in human at 10 mg, po dosed as controlled release formulation; format: ADME, organism-based; design: dose 10 mg, route oral; details: in vivo
[40] = Ratio of unbound Cmax in human at 10 mg, po dosed as controlled release formulation to inhibition of human OCT1 expressed in HEK293 cells assessed as reduction in ASP+ substrate uptake by microplate reader based analysis; format: ADME, organism-based; details: in vivo
[41] = Ratio of unbound maximal portal vein concentration in human at 10 mg, po dosed as controlled release formulation to inhibition of human OCT1 expressed in HEK293 cells assessed as reduction in ASP+ substrate uptake by microplate reader based analysis; format: ADME, organism-based; details: in vivo
[42] = Unbound Cmax in human at 10 mg, po dosed as controlled release formulation; format: ADME, organism-based; details: in vivo
[43] = Unbound maximal portal vein concentration of in human at 10 mg, po dosed as controlled release formulation; format: ADME, organism-based; details: in vivo
[44] = Unbound maximal portal vein concentration of in human at 5 mg, po dosed as immediate release formulation; format: ADME, organism-based; details: in vivo
[45] = Unbound Cmax in human at 5 mg, po dosed as immediate release formulation; format: ADME, organism-based; details: in vivo
[46] = Ratio of unbound Cmax in human at 5 mg, po dosed as immediate release formulation to inhibition of human OCT1 expressed in HEK293 cells assessed as reduction in ASP+ substrate uptake by microplate reader based analysis; format: ADME, organism-based; details: in vivo

`CCOC(=O)[C@@]1(c2ccccc2)CCC=C[C@@H]1N(C)C` showed a Ratio [1] of 0.211, a Papp [2] of 31.6 ×10⁻⁶ cm/s and a Ratio [3] of 0.273. For the same compound, the uptake ratio at 2 min, 0.05 µM [4] was 1.3, the Ratio [5] was 0.002 and the Cmax [6] was 110 nM. For the same compound, the Cmax [7] was 3310 nM, the IC50 [8] was 38.7 µM and the fCmax [9] was 0.08 µM. It also gave an uptake ratio at 2 min, 0.5 µM [10] of 1.3, a fCmax [11] of 8.18 µM and a fCmax [12] of 2.49 µM. The fCmax [13] was 10.58 µM, the Ratio [14] was 0.064 and the uptake ratio at 2 min, 0.1 µM [15] was 1.3.

In the case of `CN1CC[C@]23c4c5ccc(O)c4O[C@H]2C(=O)CC[C@H]3[C@H]1C5` [HYDROMORPHONE], the Activity [16] is reported as “Active”, the “fold change (FC)” value [17] is reported as 1.7 and the Activity [18] is reported as “Active”. For the same compound, the Activity [19] was “inactive”, the IC50 [8] was 138 µM and the Activity [20] was “inactive”. For the same compound, the Activity [21] was “inactive”, the fCmax [22] was 0.03 µM and the fCmax [23] was 0.72 µM. For the same compound, the Cmax [24] was 40 nM and the Activity [25] was “inactive”.

With `C[N+]1(CC2CC2)CC[C@]23c4c5ccc(O)c4O[C@H]2C(=O)CC[C@@]3(O)[C@H]1C5` (stereo not given in full) [METHYLNALTREXONE] the Activity [16] was “Active”, the Cmax [26] was 140 nM and the Km at 2 min [27] was 20 to 20.3 µM. The fCmax [28] was 0.12 µM, the Vmax [29] was 371.9 pmol/min/mg and the Activity [18] was “Active”. For the same compound, the Activity [19] was “inactive”, the fCmax [30] was 64.93 µM and the IC50 [8] was 234 µM. The Activity [20] was “inactive”, the Activity [21] was “inactive” and the Activity [31] was “inactive”. The microsomal CLint [32] was 32 µL/min/mg and the Activity [25] was “inactive”.

`CN1CC[C@]23c4c5ccc(O)c4O[C@H]2[C@@H](O)C=C[C@H]3[C@H]1C5` [MORPHINE] showed a Cmax [33] of 40 nM, a Cmax [34] of 250 nM and an IC50 [8] of 71.8 to 72 µM. The Cmax [35] was 30 nM and the Cmax [36] was 1050 nM.

Compound `COc1ccc2c3c1O[C@H]1C(=O)CC[C@@]4(O)[C@@H](C2)N(C)CC[C@]314` [OXYCODONE] has a Cmax [37] of 50 nM, a Ratio [38] of 0.0003 and a Cmax [39] of 50 nM. The Papp [2] was 17.9 ×10⁻⁶ cm/s, the Ratio [40] was 0.00001 and the Ratio [41] was 0.001. For the same compound, the fCmax [42] was 0.03 µM, the uptake ratio at 2 min, 0.05 µM [4] was 0.9 and the fCmax [43] was 1.06 µM. For the same compound, the fCmax [44] was 0.54 µM, the IC50 [8] was 2000 µM and the uptake ratio at 2 min, 0.5 µM [10] was 0.9. It also gave a fCmax [45] of 0.03 µM, a Ratio [46] of 0.00001 and an uptake ratio at 2 min, 0.1 µM [15] of 0.8.
